What was measured:
[1] = test system: Hsp90 chaperoning machine; experiment: progesterone receptor (PR) refolding assay using reticulocyte lysate (RRL); assay type: biochemical; conditions: protein complex analysis; 10 μM EnnA, 1 μM 17-AAG
Excerpt: (§1) The first bar indicates 100% folding activity of RRL without inhibitor. PR22 indicates the antibody without PR but with RRL and EnnA. PR represents the antibody (PR22) with PR but without RRL. All other samples have PR22, PR, and RRL without (first bar) or with increased concentration of EnnA. FIGS. 1C-1E are line graphs of cell survival versus EnnA concentration (μM) in breast cancer cell lines Hs578T (FIG. 1C), […] (FIG. 1D) and MDA-MB231 (FIG. 1E) upon treatment with EnnA for 48 and 72 h. […] PR alone (PR), antibody (PR22)+RRL, PR+RRL without inhibitor (RRL), PR+RRL with 1 μM 17-AAG (17AAG) PR+RRL with 10 μM BEAU or EnnA. FIGS. 1G-1I are autoradiographs of Western blots of cytosols from various cell lines treated with 17-AAG (1 μM) or EnnA (3 μM) with antibodies against the specified proteins. FIG. 1J is an autoradiograph showing EnnA causes autophagy in Hs578T and MDA-MB453 cell lines. FIGS. 1K-1N are electron microscopy micrographs showing autophagosomes and reduced mitochondria content in Hs578T cells treated with DMSO or EnnA. FIGS. 1O-1P are fluorescence micrographs showing EnnA causing reduced mitochondria content in Hs578T cells. FIGS. 1Q-1BB are fluorescence micrographs showing mitophagy in Hsp578T cells treated with EnnA as indicated by colocalization of the mitochondria marker Cox4 and the autophagy marker LC3BII.
A cell-free high-throughput screen (HTS) platform based on the progesterone receptor (PR) using reticulocyte lysate (RRL) as a source of molecular chaperones was used to screen 175 natural products (Patwardhan C A, et al., J Biomol Screen (2014)). This assay captures the physiological steps of PR refolding by the Hsp90 chaperoning machine and measures the recovery of its hormone-binding activities after mild heat treatment. It has the ability to identify inhibitors as well as activators of the core components of the Hsp90 chaperoning machine (i.e., Hsp90, Hsp70, Hsp40, Hsp90/Hsp70 organizing protein (HOP), and p23), including compounds that target chaperone complexes as well as individual proteins.

[2] = test system: Hs587T and MDA-MB-453 cell lines; experiment: autophagy, mitochondria content and mitophagy in treated cancer cells; assay type: cell-based, human; conditions: Hs587T and MDA-MB-453 cell lines
Excerpt: as §1

AB1-HA tumor = conditions: CTX treatment at Day 9; cited from earlier work
KB-3-1 cervix carcinoma = conditions: cited from earlier work
[3] = preclinical studies; cited from earlier work

C=CCNC1=C2C[C@@H](C)C[C@H](OC)[C@H](O)[C@@H](C)/C=C(\C)[C@H](OC(N)=O)[C@@H](OC)/C=C\C=C(/C)C(=O)NC(=CC1=O)C2=O [17-AAG, reference compound]
accumulation of Hsp70-rich PR complexes [1]: observed
mode of cell death (apoptosis / autophagy) [2]: induces apoptosis

O=P1(N(CCCl)CCCl)NCCCO1 (centres unmarked) [CTX, Cyclophosphamide]
cure rate (AB1-HA tumor): 75%

CC(C)[C@H]1C(=O)O[C@H](C(C)C)C(=O)N(C)[C@@H](C(C)C)C(=O)O[C@H](C(C)C)C(=O)N(C)[C@@H](C(C)C)C(=O)O[C@H](C(C)C)C(=O)N1C [Enniatin B]
reduction of tumor growth in combination with sorafenib (KB-3-1 cervix carcinoma): synergizes with sorafenib
anti-angiogenic activity [3]: anti-angiogenic activity

From patent publication US11446352B2, “Compositions and methods for inhibiting tumor-induced immune suppression” (priority 2017, dated 2022)
